Assay [1] has as its system MIA PaCa-2 human pancreatic cancer xenograft. Kind of assay: In vivo efficacy study of Compound-24 with Afatinib, MIA PaCa-2 xenograft. More on the design: species or system nude mice. Here is the method: Compound-24 (1 mg/kg; b.i.d.), Afatinib (12.5 mg/kg; q.d.) and Compound-24+Afatinib (Compound-24; 1 mg/kg; b.i.d+Afatinib; 12.5 mg/kg; q.d.).
The test system is the same in assay [2]. Kind of assay: In vivo efficacy study of Compound-24 with BI-3406, MIA PaCa-2 xenograft. As to conditions: Compound-24 alone, 1 mg/kg; day 15.
Excerpt: The tumor-bearing mice were randomized once the tumors reached an average volume of approximately 155-159 mm^3 (Tumor volume range 107-248 mm^3).
The test system is the same in assay [3]. The experiment in a line: In vivo efficacy study of Compound-24 with Ulixertinib (BVD-523), MIA PaCa-2 xenograft (tumor fragments). More on the design: species or system nude mice. As to conditions: Compound-24 alone, 1 mg/kg b.i.d. As to the method:
MIA PaCa-2 tumor fragments were implanted subcutaneously in nude mice. […] Compound-24 (1 mg/kg; b.i.d.), BVD-523 (25 mg/kg; b.i.d.) and Compound-24+BVD-523 (Compound-24; 1 mg/kg; b.i.d+BVD-523; 25 mg/kg; b.i.d.).

Turning to `CN(C)C/C=C/C(=O)Nc1cc2c(Nc3ccc(F)c(Cl)c3)ncnc2cc1O[C@H]1CCOC1` [Afatinib, (E)-N-(4-(3-chloro-4-fluoroanilino)-7-[(3S)-oxolan-3-yl)oxoquinazolin-6-yl)-4-(dimethylamino)but-2-enamide, reference compound], the “% tumor growth inhibition” value in assay [1] (Afatinib alone, 12.5 mg/kg q.d.) is on record as 58.68±5.14%.
`Nc1nc2cc(CCC3=C[C@@H](n4ccc5c(N)ncnc54)[C@H](O)[C@@H]3O)cc(F)c2cc1Cl` [Compound-24, (1S,2R,5R)-3-(2-(2-Amino-3-chloro-5-fluoroquinolin-7-yl)ethyl)-5-(4-amino-7H-pyrrolo[2,3-d]pyrimidin-7-yl)cyclopent-3-ene-1,2-diol]: the “% tumor growth inhibition” value was determined as 48.03±5.75% in assay [1] (Compound-24 alone, 1 mg/kg b.i.d.); 47.88±12.12% in assay [2]; 58.83±9.92% in assay [3].

The record behind these values is patent US12447152B2, “Pharmaceutical combination of PRMT5 inhibitors” (Lupin Limited, priority 2019, dated 2025).
